Key:
[1] = tested on: MRSA ATCC 33592; assay: MIC, microbroth dilution; format: cell-based; settings: standalone
Summary of the method: (§1)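 Overnight cultures were adjusted to 0.5 McFarland in saline, diluted into Mueller-Hinton broth and added to 2-fold serially diluted compound for a final inoculum near 5×10^5 CFU/mL. Plates were incubated 18 h at 37 °C. The MIC was read as the lowest concentration without visible growth.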

[2] = tested on: MSSE CANWARD-2008 81388; assay: MIC, microbroth dilution; format: cell-based; settings: standalone
Summary of the method: as §1

[3] = tested on: β-lactamase-harboring MDR P. aeruginosa clinical isolates; assay: Triple combination susceptibility (β-lactam + avibactam + compound 2); format: cell-based, Pseudomonas aeruginosa
Excerpt: The diazabicyclooctane β-lactamase inhibitor, avibactam, is able to inhibit a wide range of serine β-lactamases (class A, C, and D) but not metallo-β-lactamases (class B) (50, 51).^50,51 However, the high concentration of avibactam required to neutralize the effects of β-lactamase enzymes in these phenotypes is indicative of concomitant permeability barriers in the isolates, such as reduced porin uptake. […] The results of this study are shown in (FIG. 6). All isolates were resistant to all three β-lactam antibiotics used for the study. […] As expected, the study with meropenem was slightly different from others.
Antimicrobial Susceptibility Assay. The in vitro antimicrobial activity of all compounds/antibiotics against a panel of bacteria was evaluated by microbroth dilution method in accordance with the Clinical and Laboratory Standards Institute (CLSI) guidelines. Overnight grown bacterial cultures were diluted in saline to achieve a 0.5 McFarland turbidity, followed by 1:50 dilution in Mueller-Hinton broth (MHB) for inoculation to a final concentration of approximately 5×10^5CFU/mL. The antimicrobial agents were 2-fold serially diluted in MHB in a 96-well plate and incubated at 37° C. with equal volumes of inoculum for 18 h. The lowest concentration that prevented the visible growth of bacteria was defined as the MIC for each antimicrobial agent. The broth with or without bacterial cells was used as positive or negative control, respectively.
Checkerboard Assay. Combination studies with different antibiotics were performed in 96-well plates as previously described (22). Briefly, the antibiotic of interest was serially diluted in MHB along the abscissa while the adjuvant (newly synthesized conjugates) was serially diluted in MHB along the ordinate. This creates a 10×7 matrix wherein each well consists of a combination of different antibiotic and adjuvant concentrations. Overnight grown bacterial cultures were diluted in saline to achieve a 0.5 McFarland turbidity, followed by 1:50 dilution in Mueller-Hinton broth (MHB) for inoculation to a final concentration of approximately 5×10^5CFU/mL. Equal volume of this bacterial culture was then added to each well and incubated at 37° C. for 18 h. After incubation, the plates were read on EMax® Plus microplate reader (Molecular Devices, Sunnyvale, Calif., USA) at 590 nm. MIC was recorded as wells with the lowest concentration of drugs with no bacterial growth. The fractional inhibitory concentration (FIC) for each antibiotic was calculated by dividing the MIC of the antibiotic in the presence of adjuvant by the MIC of the antibiotic alone. Similarly, the FIC of adjuvant was calculated by dividing the MIC of the adjuvant in the presence of antibiotic by the MIC of the adjuvant alone. FIC index is the sum of both FICs. FIC indices of <0.5 were deemed synergistic; 0.5-4, no interaction; and >4, antagonistic.

5-O-(Octylcyclam)-tobramycin.9TFA [Compound 2]
MIC [1]: 64 µg/mL | MIC [2]: 16 µg/mL | effect on activity of ceftolozane-tazobactam combinations ([3]; all β-lactamase-harboring isolates tested): did not improve the activity | isolates below aztreonam susceptible breakpoint ([3]; aztreonam + avibactam + compound 2, 8 μM each): all five isolates | isolates reaching aztreonam susceptibility breakpoint (≤8 μg/ml) ([3]; aztreonam + single adjuvant 8 μM): two out of five | isolates below ceftazidime susceptible breakpoint ([3]; ceftazidime + avibactam + compound 2, 8 μM each): all isolates | isolates reaching ceftazidime susceptibility breakpoint (≤8 μg/ml) ([3]; ceftazidime + single adjuvant 8 μM): one of five | isolates reaching meropenem susceptible levels ([3]; meropenem + avibactam + compound 2, 8 μM each): three out of five | isolates reaching meropenem susceptibility level ([3]; meropenem + single adjuvant 8 μM): zero of five | potentiation of ceftazidime ([3]; single adjuvant at 8 μM, five isolates): 4 fold

— US20210290648A1, “Potentiation of B-Lactam Antibiotics and B-Lactam/B-Lactamase Inhibitor Combinations Against Multidrug and Extensively Drug-Resistant Pseudomonas Aeruginosa Using Non-Ribosomal Tobramycin-Cyclam Conjugates” (University of Manitoba, priority 2018, published 2021)
